Earlier results on one compound are cited in patent US5691376A, “Substituted biphenyl derivatives” (American Home Products Corporation, priority 1996, dated 1997).

For data set [1], the system named is humoral (IgE-like) antibodies. Conditions: albumin allergic challenge; Martel 1977; cited from earlier work.
The next data set deals with murine T-cell. Particulars: Strauch 1989; cited from earlier work.

Regarding `CO[C@H]1C[C@@H]2CC[C@@H](C)[C@@](O)(O2)C(=O)C(=O)N2CCCC[C@H]2C(=O)O[C@H]([C@H](C)C[C@@H]2CC[C@@H](O)[C@H](OC)C2)CC(=O)[C@H](C)/C=C(\C)[C@@H](O)[C@@H](OC)C(=O)[C@H](C)C[C@H](C)/C=C/C=C/C=C/1C` [Rapamycin], the “prevention of formation of humoral (IgE-like) antibodies” value in data set [1] is “prevent the formation of humoral (IgE-like) antibodies in response to an albumin allergic challenge”. In the data set with murine T-cell, the “inhibition of T-cell activation” value is “inhibit murine T-cell activation”.
